The values that follow come from PMC8856595 (2021).

What all share (experiment): ITC
In assay [1] the test system is aptananozyme I: 5'-amino-DBA (1) on Cu2+ C-dots (DNA, aptamer) CGACGCCAGTTTGAAGGTTCGTTCGCAGGTGTGGAGTGACGTCG
The settings on record: 100 mM NaCl, 5 mM MgCl2, 5 mM MES, pH 5.5; for Kd: printed as 'the aptamer', methods: aptananozyme.

Assay [2] deals with aptananozyme IV: 5'-amino-(TGTA)2-DBA (4) on Cu2+ C-dots (DNA, aptamer) TGTATGTACGACGCCAGTTTGAAGGTTCGTTCGCAGGTGTGGAGTGACGTCG
The note with it: 100 mM NaCl, 5 mM MgCl2, 5 mM MES, pH 5.5.

The subject of assay [3] is aptananozyme V: 5'-amino-(TGTA)3-DBA (5) on Cu2+ C-dots (DNA, aptamer) TGTATGTATGTACGACGCCAGTTTGAAGGTTCGTTCGCAGGTGTGGAGTGACGTCG
The settings on record: 100 mM NaCl, 5 mM MgCl2, 5 mM MES, pH 5.5.

For assay [4], the system named is aptananozyme II: 3'-amino-DBA (2) on Cu2+ C-dots (DNA, aptamer) CGACGCCAGTTTGAAGGTTCGTTCGCAGGTGTGGAGTGACGTCG
The settings on record: 100 mM NaCl, 5 mM MgCl2, 5 mM MES, pH 5.5.

In assay [5] the test system is aptananozyme III: 5'-amino-(TGTA)-DBA (3) on Cu2+ C-dots (DNA, aptamer) TGTACGACGCCAGTTTGAAGGTTCGTTCGCAGGTGTGGAGTGACGTCG
The note with it: 100 mM NaCl, 5 mM MgCl2, 5 mM MES, pH 5.5.

Assay [6] relates to aptananozyme XIV: 5'-amino-(TGTA)3-TBA (10) on Cu2+ C-dots (DNA, aptamer) TGTATGTATGTATGTGGTGTGTGAGTGCGGTGCCC
The settings on record: 100 mM NaCl, 5 mM MgCl2, 50 mM phosphate, pH 7.2, Figure S16 legend: 50 mM NaCl, 10 mM MgCl2.

In assay [7] the test system is aptananozyme XII: 5'-amino-(TGTA)-TBA (8) on Cu2+ C-dots (DNA, aptamer) TGTATGTGGTGTGTGAGTGCGGTGCCC
The note with it: 100 mM NaCl, 5 mM MgCl2, 50 mM phosphate, pH 7.2, Figure S16 legend: 50 mM NaCl, 10 mM MgCl2.

The subject of assay [8] is aptananozyme XI: 3'-amino-TBA (7) on Cu2+ C-dots (DNA, aptamer) TGTGGTGTGTGAGTGCGGTGCCC
The note with it: 100 mM NaCl, 5 mM MgCl2, 50 mM phosphate, pH 7.2, Figure S16 legend: 50 mM NaCl, 10 mM MgCl2.

The test system of assay [9] is aptananozyme XIII: 5'-amino-(TGTA)2-TBA (9) on Cu2+ C-dots (DNA, aptamer) TGTATGTATGTGGTGTGTGAGTGCGGTGCCC
The settings on record: 100 mM NaCl, 5 mM MgCl2, 50 mM phosphate, pH 7.2, Figure S16 legend: 50 mM NaCl, 10 mM MgCl2.

In assay [10] the test system is aptananozyme X: 5'-amino-TBA (6) on Cu2+ C-dots (DNA, aptamer) TGTGGTGTGTGAGTGCGGTGCCC
The settings on record: 100 mM NaCl, 5 mM MgCl2, 50 mM phosphate, pH 7.2, Figure S16 legend: 50 mM NaCl, 10 mM MgCl2.

Compound `N[C@H](Cc1ccc(O)c(O)c1)C(=O)O` came in with a Kd in [1] of 6600 ± 1000 nM.
Turning to `NCCc1ccc(O)c(O)c1`, the binding result in assay [2], in [4], in assay [5] and in assay [1] (aptamer on Cu2+ C-dots) was “yes” in each case. In addition, the dissociation constant Kd in [3] was found to be 3900 ± 200 nM.
As for `NC(=O)[C@@H](N)Cc1ccc(O)cc1`, the Kd is 1400 ± 100 nM in assay [6], 1240 ± 50 nM in assay [8] and 830 ± 10 nM in assay [10]. Further, the binding entry in assay [7] and in [9] was “yes” throughout.
As for `N[C@@H](Cc1ccc(O)c(O)c1)C(=O)O`, the Kd in assay [1] is 1700 ± 400 nM.
